Laboratory results: ChEMBL document CHEMBL1146452, “Saponins from the flower buds of Buddleja officinalis” (J Nat Prod, 2004)

Each compound was assayed on HL-60 (assay: Cytotoxicity against human HL60 cells by MTT assay).
Format: functional, cell-based
With `C[C@H]1O[C@@H](O[C@H]2CC[C@]3(C)C4=CC=C5[C@@H]6CC(C)(C)CC[C@]6(CO)[C@@H](O)C[C@@]5(C)[C@]4(C)CC[C@H]3[C@]2(C)CO)[C@H](O)[C@@H](O[C@@H]2O[C@H](CO)[C@@H](O[C@@H]3OC[C@@H](O)[C@H](O)[C@H]3O)[C@H](O)[C@H]2O)[C@H]1O` [MIMENGOSIDE F] the IC50 was 22.7 µM.
Compound `C[C@@H]1O[C@@H](O[C@H]2[C@H](O)[C@@H](O)[C@H](O[C@H]3[C@@H](O)[C@@H](C)O[C@@H](O[C@H]4CC[C@]5(C)C6=CC=C7[C@@H]8CC(C)(C)CC[C@]8(CO)[C@@H](O)C[C@@]7(C)[C@]6(C)CC[C@H]5[C@]4(C)CO)[C@@H]3O[C@@H]3O[C@H](CO)[C@@H](O)[C@H](O)[C@H]3O)O[C@@H]2CO)[C@H](O)[C@H](O)[C@H]1O` [MIMENGOSIDE E] has an IC50 of 16.8 µM.
For `C[C@@H]1O[C@@H](O[C@H]2[C@H](O)[C@@H](O)[C@H](O[C@H]3[C@@H](O)[C@@H](C)O[C@@H](O[C@H]4CC[C@@]5(C)[C@@H](CC[C@]6(C)[C@@H]5C=CC5=C7CC(C)(C)CC[C@]7(CO)[C@@H](O)C[C@]56C)[C@]4(C)CO)[C@@H]3O[C@@H]3O[C@H](CO)[C@@H](O)[C@H](O)[C@H]3O)O[C@@H]2CO)[C@H](O)[C@H](O)[C@H]1O` [MIMENGOSIDE C], the IC50 was 23.2 µM.
Work on `C[C@H]1O[C@@H](O[C@H]2CC[C@@]3(C)[C@@H](CC[C@]4(C)[C@@H]3C=CC3=C5CC(C)(C)CC[C@]5(CO)[C@@H](O)C[C@]34C)[C@]2(C)CO)[C@H](O)[C@@H](O[C@@H]2O[C@H](CO)[C@@H](O[C@@H]3OC[C@@H](O)[C@H](O)[C@H]3O)[C@H](O)[C@H]2O)[C@H]1O` [MIMENGOSIDE D] yielded an IC50 of 26.7 µM.
